Test results as given in patent publication US12377083B2 (WUHAN LL SCIENCE AND TECHNOLOGY DEVELOPMENT CO., LTD., priority 2019, dated 2025).

Tests used:
Format in all cases: cell-based
[1] = target: hLPAR1 (human lysophosphatidic acid receptor 1) (Homo sapiens, UniProt Q92633); test: FLIPR assay of intracellular calcium increase induced by activation of hLPAR1 expressed in CHO-K1 cells; conditions: CHO-K1 cells expressing hLPAR1, agonist oleoyl-L-α-lysophosphatidic acid 1 μM; read-out: LPAR1 IC50
hLPAR1 (human lysophosphatidic acid receptor 1), sequence (Q92633 whole entry): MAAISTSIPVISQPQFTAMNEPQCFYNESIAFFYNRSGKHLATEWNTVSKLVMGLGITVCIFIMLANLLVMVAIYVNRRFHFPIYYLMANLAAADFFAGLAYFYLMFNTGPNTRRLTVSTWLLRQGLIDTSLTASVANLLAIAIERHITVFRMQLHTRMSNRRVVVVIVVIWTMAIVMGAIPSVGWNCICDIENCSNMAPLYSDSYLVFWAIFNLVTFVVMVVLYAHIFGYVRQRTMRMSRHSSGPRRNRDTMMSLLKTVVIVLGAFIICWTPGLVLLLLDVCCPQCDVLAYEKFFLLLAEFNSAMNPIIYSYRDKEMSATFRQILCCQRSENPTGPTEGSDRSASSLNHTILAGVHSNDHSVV
Method: The antagonist property of the compounds disclosed herein was determined using the FLIPR (fluorescence imaging plate reader) method, wherein the compounds are inhibitors for the intracellular calcium increase induced by activation of hLPAR1 (human lysophosphatidic acid receptor 1, accession No. NM_001401.4) expressed in CHO-K1 cells (Chinese hamster ovary cells K1, ATCC).
Cells at 250,000 cells/mL were seeded into a 96-well plate (25,000 cells/well) 18-24 h prior to the FLIPR experiment and then incubated overnight in a cell incubator. […] Each well was added with 75 μL of […] Fluo-4 AM fluorescent dye (Thermo, F14202) and then the cells were subjected to dye-loading incubation at 37° C. for 1.0 h. The 96-well plate was then washed once with buffer, added with a buffer containing a test compound or a vehicle at 50 μL per well and then incubated for 30 min at room temperature. […] An agonist (oleoyl-L-α-lysophosphatidic acid sodium salt (Sigma, L7260)) at a final concentration of 1 μM or a vehicle (ultrapure water) was then added at 50 μL/well, fluorescence values were measured for 2 min at 1-second intervals, and finally the output fluorescence counts were analyzed.

[2] = test system: A2058 (human melanoma cells); test: A2058 cell scratch (migration) assay with LPA; conditions: 10 μM LPA, scratch area at 24 h
Method: The activity of the compounds disclosed herein at the cell level in vitro is evaluated by A2058 (human melanoma cells, Beina Bio, BNCC341099) cell scratch assay. The inhibitory activity of the compounds against LPAR1 can be reflected by inhibition of cell scratch healing.
After the cell confluence reached 80%, the cell culture plate was taken out and the original medium was discarded. Serum-free medium was then added, and the cells were starved overnight in an incubator (37° C., 5% CO2). The cell culture plate was then taken out, and cell scratches were made along the diameter of the wells using a 200 μL pipette tip. The cell culture plate was then added with 500 μL of serum-free medium and then shaken gently to wash away the residual cells on the scratched surface, and this was repeated twice. The medium was discarded and 500 μL of 1% FBS medium containing the compound was then added, and the mixture was incubated at 37° C. for 30 min. […] Olympus CKX53 was used to observe the scratches, and MShot image analysis system was used to take pictures and measure the scratch area at 0 h. The plate was incubated in the incubator under the conditions of 37° C. and 5% CO2. 24 h later, the scratches were observed again with Olympus CKX53, and MShot image analysis system was used to take pictures and measure the scratch area at 24 h. Cell migration inhibition rate was calculated according to the following formula: […]

[3] = In vitro cytotoxicity assay in HepG2 cells, CCK-8 method; conditions: human
Method: In vitro cytotoxicity assay for the compounds disclosed herein was performed in HepG2 cells using the CCK-8 method. HepG2 cells (Beina Bio) in the logarithmic growth phase were collected, the concentration of cell suspension was adjusted, and then the cells were plated on a 96-well cell culture plate at 50,000 cells/well. The cells were then incubated overnight in a cell incubator (5% CO2, 37° C.), and after 80-90% cell confluence was achieved, test compounds or vehicle (DMSO) at various concentration gradients were added after medium change. The resulting mixture was incubated in the cell incubator (5% CO2, 37° C.) for 48 h. After the treatment, the medium in the plate was discarded. The plate was washed twice with PBS, added with CCK-8 working solution (Beyotime) at 100 μL per well, and then incubated at 37° C. for 1.5 h away from the light. Absorbance at OD450 nm was measured for each well on a microplate reader, and CC50 value of each compound was analyzed and calculated.

Structure (SMILES) | IC50 [1] [nM] | Cell migration inhibition rate (%) [2] | CC50 at 48 h [3] [nM]
CN(C(=O)OCc1ccccc1-c1ccc(O[C@H]2CCC[C@H](C(=O)O)C2)cc1)C1CCCC1 (racemic) [Compound 21, (+/−)-(1S,3S)-3-((2′-(((cyclopentyl(methyl)carbamoyl)oxy)methyl)-[1,1′-biphenyl]-4-yl)oxy)cyclohexane-1-carboxylate] | 300 to 10000 | C (C: 0-30%) | > 200000
Cc1nc(-c2ncn(C)c2COC(=O)N(C)C2CCCC2)ccc1O[C@H]1CCC[C@H](C(=O)O)C1 (racemic) [Compound 17, (+/−)-(1S,3S)-3-((6-(5-(((cyclopentyl(methyl)carbamoyl)oxy)methyl)-1-methyl-1H-imidazol-4-yl)-2-methylpyridin-3-yl)oxy)cyclohexane-1-carboxylic Acid] | 50 to 300 | C (C: 0-30%) | > 200000
Cc1nc(-c2snc(C)c2COC(=O)N(C)C2CCCC2)ccc1O[C@H]1CCC[C@H](C(=O)O)C1 (racemic) [Compound 40] | < 50 | A (A: 50-70%) | > 200000
Cc1nc(-c2ccn(C)c2COC(=O)N(C)C2CCCC2)ccc1O[C@H]1CCC[C@H](C(=O)O)C1 (racemic) [Compound 55] | < 50 | A (A: 50-70%) | > 200000
CN(Cc1ccccc1)C(=O)OCc1nc2cc(O[C@H]3CCC[C@H](C(=O)O)C3)ccc2n1C (racemic) [Compound 22] | 300 to 10000 | C (C: 0-30%) | > 200000
CN(Cc1ccccc1)C(=O)OCc1c(-c2ccc(O[C@H]3CCC[C@H](C(=O)O)C3)cc2)cnn1C (racemic) [Compound 2, (+/−)-(1S,3S)-3-(4-(5-(((benzyl(methyl)carbamoyl)oxy)methyl)-1-methyl-1H-pyrazol-4-yl)phenoxy)cyclohexane-1-carboxylic Acid] | 300 to 10000 | C (C: 0-30%) | > 200000
CN(C(=O)OCc1c(-c2ccc(O[C@H]3CCC[C@H](C(=O)O)C3)c(F)n2)cnn1C)C1CC1 (racemic) [Compound 108, (+/−) (1S,3S)-3-((6-(5-(((cyclopropyl(methyl)carbamoyl)oxy)methyl)-1-methyl-1H-pyrazol-4-yl)-2-fluoropyridin-3-yl)oxy)cyclohexane-1-carboxylic Acid] | 300 to 10000 | B (B: 30-50%) | –
CN(C(=O)OCc1c(-c2ccc(O[C@H]3CCC[C@H](C(=O)O)C3)c(N)n2)cnn1C)C1CCC1 (racemic) [Compound 113, (+/−)-(1S,3S)-3-((2-amino-6-(5-(((cyclobutyl(methyl)carbamoyl)oxy)methyl)-1-methyl-1H-pyrazol-4-yl)pyridin-3-yl)oxy)cyclohexane-1-carboxylic Acid] | 300 to 10000 | C (C: 0-30%) | –
CN(C(=O)OCc1c(-c2cnc(O[C@H]3CCC[C@H](C(=O)O)C3)c(Cl)n2)cnn1C)C1CCCC1 [Compound 105] | < 50 | B (B: 30-50%) | –
Cc1nc(-c2cnn(C)c2COC(=O)N(C)CC2COC2)ccc1O[C@H]1CCC[C@H](C(=O)O)C1 (racemic) [Compound 97] | 300 to 10000 | C (C: 0-30%) | –
CN(C(=O)OCc1c(-c2cnc(O[C@H]3CCC[C@H](C(=O)O)C3)c(O)n2)cnn1C)C1CCCC1 (racemic) [Compound 117] | 300 to 10000 | B (B: 30-50%) | –
Cc1nc(-c2onc(C)c2COC(=O)N(C)C2CCCC2)ncc1O[C@H]1CCC[C@H](C(=O)O)C1 (racemic) [Compound 91, (+/−)-(1S,3S)-3-((2-(4-(((cyclopentyl(methyl)carbamoyl)oxy)methyl)-3-methylisoxazol-5-yl)-4-methylpyrimidin-5-yl)ox)cyclohexane-1-carboxylic Acid] | < 50 | C (C: 0-30%) | –
Cc1nc(-c2cnn(C)c2COC(=O)N(C)C2CCOCC2)ccc1O[C@H]1CCC[C@H](C(=O)O)C1 [Compound 95, (1S,3S)-3-((2-methyl-6-(1-methyl-5-(((methyl(tetrahydro-2H-pyran-4-yl)carbamoyl)oxy)methyl)-1H-pyrazol-4-yl)pyridin-3-yl)oxy)cyclohexane-1-carboxylic Acid] | 300 to 10000 | C (C: 0-30%) | –
Cc1nc(-c2cnn(C)c2COC(=O)N(C)CC2CCOC2)ccc1O[C@H]1CCC[C@H](C(=O)O)C1 (mixture of isomers) [Compound 98, (+/−)-(1S,3S)-3-((2-methyl-6-(1-methyl-5-(((methyl((tetrahydrofuran-3-yl)methyl)carbamoyl)oxy)methyl)-1H-pyrazol-4-yl)pyridin-3-yl)oxy)cyclohexane-1-carboxylic Acid] | 300 to 10000 | C (C: 0-30%) | –
Cc1nc(-c2cnn(C)c2COC(=O)N2CC3CCC(C2)O3)ccc1O[C@H]1CCC[C@H](C(=O)O)C1 (racemic) [Compound 65, (+/−)-(1R,3R)-3-((6-(5-(((8-oxa-3-azabicyclo[3.2.1]octane-3-carbonyl)oxy)methyl)-1-methyl-1H-pyrazol-4-yl)-2-methylpyridin-3-yl)oxy)cyclohexane-1-carboxylic Acid] | 300 to 10000 | C (C: 0-30%) | –
Cc1nc(-c2cnn(C)c2COC(=O)N(C)C2CCOC2)ccc1O[C@H]1CCC[C@H](C(=O)O)C1 (mixture of isomers) [Compound 93] | 300 to 10000 | B (B: 30-50%) | –
CN(CC1CC1)C(=O)OCc1c(-c2ccc(O[C@H]3CCC[C@H](C(=O)O)C3)c(F)n2)cnn1C (racemic) [Compound 110, (+/−)-(1S,3S)-3-((6-(5-((((cyclopropylmethyl)(methyl)carbamoyl)oxy)methyl)-1-methyl-1H-pyrazol-4-yl)-2-fluoropyridin-3-yl)oxy)cyclohexane-1-carboxylic Acid] | 50 to 300 | B (B: 30-50%) | –
CN(C(=O)OCc1c(-c2cnc(O[C@H]3CCC[C@H](C(=O)O)C3)c(C#N)n2)cnn1C)C1CCCC1 (racemic) [Compound 104, (+/−)-(1S,3S)-3-((3-cyano-5-(5-(((cyclopentyl(methyl)carbamoyl)oxy)methyl)-1-methyl-1H-pyrazol-4-yl)pyrazin-2-yl)oxy)cyclohexane-1-carboxylic Acid] | < 50 | C (C: 0-30%) | –
Cc1nc(-c2cnn(C)c2COC(=O)N(C)C2COC2)ccc1O[C@H]1CCC[C@H](C(=O)O)C1 (racemic) [Compound 64, (+/−)-(1S,3S)-3-((2-methyl-6-(1-methyl-5-(((methyl(oxetan-3-yl)carbamoyl)oxy)methyl)-1H-pyrazol-4-yl)pyridin-3-yl)oxy)cyclohexane-1-carboxylic Acid] | 300 to 10000 | C (C: 0-30%) | –
Cc1noc(-c2ccc(O[C@H]3CCC[C@H](C(=O)O)C3)cn2)c1COC(=O)N(C)C1CCCC1 (racemic) [Compound 35, (+/−)-(1S,3S)-3-((6-(4-(((cyclopentyl(methyl)carbamoyl)oxy)methyl)-3-methylisoxazol-5-yl)pyridin-3-yl)oxy)cyclohexane-1-carboxylic Acid] | – | B (B: 30-50%) | > 200000
CN(C(=O)OCc1c(-c2ccc(O[C@H]3CCC[C@H](C(=O)O)C3)c(F)n2)cnn1C)C1CCC1 (racemic) [Compound 109, (+/−)-(1S,3S)-3-((6-(5-(((cyclobutyl(methyl)carbamoyl)oxy)methyl)-1-methyl-1H-pyrazol-4-yl)-2-fluoropyridin-3-yl)oxy)cyclohexane-1-carboxylic Acid] | 50 to 300 | A (A: 50-70%) | –
CN(C(=O)COc1c(-c2ccc(O[C@H]3CCC[C@H](C(=O)O)C3)c(N3CCOCC3)n2)cnn1C)C1CCC1 (racemic) [Compound 115] | 300 to 10000 | C (C: 0-30%) | –
